± gives the expanded uncertainty stated by the source.
Settings: 298 K; 101.33 kPa; Crystal; SIGMATEST 2.069 (Foerster) testing instrument - complex impedance measurements

## [Ag] [silver]
  electrical conductivity: 6.107e+07 ± 610000 S/m
